Assay results as given in the RepoRT retention time repository (doi:10.1016/j.chroma.2019.01.023).

Columns and labels:
Details in all cases: stereoisomer not certain
[1] = HILIC, Merck SeQuant ZIC-pHILIC, 150 × 2.1 mm, 5 µm, 40 °C, 0.3 mL/min, estimated dead time 1.1 min; A: acetonitrile; B: water + 2.8 mM ammonium formate, pH 9; gradient (min/%B) 0/5 1/5 10/51 13/51 13.1/5 20/5
[2] = RP, Phenomenex Kinetex C18, 150 × 2.1 mm, 1.7 µm, 30 °C, 0.3 mL/min, estimated dead time 1.1 min; A: water + 0.1% formic acid, pH 3; B: acetonitrile + 0.1% formic acid, pH 3; gradient (min/%B) 0/2 14/100 17/100 17.1/2 25/2
[3] = HILIC, Waters ACQUITY UPLC BEH Amide, 150 × 2.1 mm, 1.7 µm, 40 °C, 0.5 mL/min, estimated dead time 0.66 min; A: 5% water + 95% acetonitrile; B: 70% water + 30% acetonitrile + 10 mM ammonium formate, pH 6.5; gradient (min/%B) 0/0 2/0 20/70 23/70 24/0 31/0
[4] = RP, Phenomenex Kinetex C18, 150 × 2.1 mm, 1.7 µm, 30 °C, 0.3 mL/min, estimated dead time 1.1 min; A: water + 0.1% formic acid, pH 3; B: acetonitrile + 0.1% formic acid, pH 3; gradient (min/%B) 0/2 14/100 17/100 17.1/2 25/2; remark: listed apart in the source

Compound | LC retention time [1] [min] | LC retention time [2] [min] | LC retention time [3] [min] | LC retention time [4] [min]
O=C(O)c1ccc2ccccc2n1 [2-QUINOLINECARBOXYLATE] | 5.63 | 4.39 | 8.23 | 
COc1cc(C(O)CO)ccc1O (stereo not drawn) [4-HYDROXY-3-METHOXYPHENYLGLYCOL] |  | 3.21 | 1.01 | 
Cc1cc2nc[nH]c2cc1C [5,6 DIMETHYLBENZIMIDAZOLE] |  | 4.83 | 0.92 | 
O=C(O)CCCCCCCCCO [10-HYDROXYDECANOATE] | 1.44 |  | 1 | 7.13
Nc1ncnc2c1ncn2C1OC(CO)C2OP(=O)(O)OC21 (stereo not drawn) [ADENOSINE 2',3'-CYCLIC PHOSPHATE] | 6.94 |  | 6.69 | 1.73
Nc1ncnc2c1ncn2C1OC(CO)C(O)C1O (stereo not drawn) [ADENOSINE] | 5.92 |  | 3.85 | 2.34
Cn1c(=O)c2c(ncn2C)n(C)c1=O [CAFFEINE] |  | 4.68 | 1.03 | 
Nc1ccn(C2OC(CO)C(O)C2O)c(=O)n1 (stereo not drawn) [CYTIDINE] | 7.29 |  | 6.3 | 1.39
CC(CCC(=O)O)C1CCC2C3CCC4CC(O)CCC4(C)C3CC(O)C12C (stereo not drawn) [DEOXYCHOLATE] |  | 10.8 | 1.01 | 
CC(=O)OCC(=O)C1CCC2C3CCC4=CC(=O)CCC4(C)C3CCC12C (stereo not drawn) [DEOXYCORTICOSTERONE ACETATE] |  | 11 |  | 
CC(C)=CCCC(C)C1CCC2C3CC=C4CC(O)CCC4(C)C3CCC12C (stereo not drawn) [DESMOSTEROL] |  | 15.4 |  | 
CCCCCCCCCC(=O)OCC(COP(=O)([O-])OCC[N+](C)(C)C)OC(=O)CCCCCCCCC (stereo not drawn) [DIDECANOYL-GLYCEROPHOSPHOCHOLINE] | 1.65 |  | 5.15 | 12.8
CC12CCC3c4ccc(O)cc4CCC3C1CCC2O (stereo not drawn) [ESTRADIOL-17ALPHA] |  | 9.34 |  | 
CCOC(=O)Cc1c[nH]c2ccccc12 [ETHYL 3-INDOLEACETATE] |  | 9.17 |  | 
Cc1cc2nc3c(=O)[nH]c(=O)nc-3n(CC(O)C(O)C(O)COP(=O)(O)OP(=O)(O)OCC3OC(n4cnc5c(N)ncnc54)C(O)C3O)c2cc1C (stereo not drawn) [FAD] | 8.07 | 4.21 |  | 
COc1cc(CC(=O)O)ccc1O [HOMOVANILLATE] | 4.78 |  | 1.59 | 4.81
O=C(O)C(O)Cc1ccc(O)cc1 (stereo not drawn) [HYDROXYPHENYLLACTATE] | 6.83 |  | 1.4 | 3.97
COC(=O)Cc1c[nH]c2ccccc12 [INDOLE-3-METHYL ACETATE] |  | 8.33 |  | 
O=CCc1c[nH]c2ccccc12 [INDOLEACETALDEHYDE] |  | 4.83 | 1.02 | 
CC(C)=CCCC(C)=CCCC(C)=CCCC(C)=CCCC(C)=CCCC(C)=CCCC(C)=CCC1=C(C)C(=O)c2ccccc2C1=O [MENAQUINONE] |  | 11.9 |  | 
O=CCc1ccccc1 [PHENYLACETALDEHYDE] |  | 9.47 |  | 
Nc1nc2nccnc2c(=O)[nH]1 [PTERIN] | 6.57 |  | 4.43 | 2.05
c1ncc2[nH]cnc2n1 [PURINE] | 3.4 |  | 1.89 | 1.92
Cc1ncc(CO)c(C=O)c1O [PYRIDOXAL] | 2.6 |  | 1.81 | 1.4
NC(=O)C1CCCN1C(=O)C(Cc1cnc[nH]1)NC(=O)C1CCC(=O)N1 (stereo not drawn) [THYROTROPIN RELEASING HORMONE] | 6.53 |  | 8.34 | 2.14
NCCc1c[nH]c2ccccc12 [TRYPTAMINE] |  | 5.12 | 7.11 | 
O=c1cc[nH]c(=O)[nH]1 [URACIL] | 4.25 |  | 1.83 | 1.41
O=c1[nH]c(=O)c2[nH]c(=O)[nH]c2[nH]1 [URATE] | 8.13 |  | 2.25 | 1.52
O=C(O)C=Cc1cnc[nH]1 [UROCANATE] | 7.08 |  | 4.08 | 1.43

More lines, now with the values ahead:

LC retention time [1] [min] | LC retention time [2] [min] | LC retention time [3] [min] | LC retention time [4] [min] | Compound
4.05 | 3.83 | 1.11 |  | Nc1ccc(C(=O)[O-])cc1 [4-AMINOBENZOATE]
8.71 |  | 5.26 | 3.73 | O=C([O-])CCCCC(=O)[O-] [ADIPATE]
 | 13.3 |  |  | CCCCCCCCCCCCCC(=O)OCC(O)CO (stereo not drawn) [GLYCEROL-MYRISTATE]
5.5 | 8.13 | 6.3 |  | CC(CCC(=O)NCC(=O)O)C1CCC2C3C(O)CC4CC(O)CCC4(C)C3CC(O)C12C (stereo not drawn) [GLYCOCHOLATE]
6.88 |  | 1.27 | 3.31 | O=C(O)Cc1cc(O)ccc1O [HOMOGENTISATE]
 | 6.54 |  |  | O=C([O-])Cc1c[nH]c2ccccc12 [INDOLE-3-ACETATE]
7.02 |  | 7.96 | 2.05 | CC(C)CC(N)C(=O)O (stereo not drawn) [LEUCINE]
 | 6.87 | 0.88 |  | NC(=O)CCCCC1CCSS1 (stereo not drawn) [LIPOAMIDE]
9.39 | 2.8 |  |  | O=C(O)CC(O)C(=O)O (stereo not drawn) [MALATE]
7.53 |  | 8.53 | 1.43 | CSCCC(N)C(=O)O (stereo not drawn) [METHIONINE]
7.27 |  | 1.27 | 3.85 | CC(CC(=O)O)CC(=O)O [METHYGLUTARATE]
6.07 |  | 3.94 | 1.99 | CC(O)(CCO)CC(=O)[O-] (stereo not drawn) [MEVALONATE]
 | 11.6 |  |  | CCCCCCCCCCCCCC(=O)O [MYRISTATE]
8.84 |  | 3.48 | 1.45 | CC(=O)NC(CC(=O)O)C(=O)O (stereo not drawn) [N-ACETYLASPARTATE]
7.17 |  | 5.48 | 1.41 | CC(=O)NCC(=O)O [N-ACETYLGLYCINE]
5.76 |  | 3.5 | 1.41 | O=C([O-])c1cccnc1 [NICOTINATE]
7.04 |  | 7.75 | 2.19 | CCCCC(N)C(=O)O (stereo not drawn) [NORLEUCINE]
7.52 |  | 8.68 | 1.33 | CCCC(N)C(=O)O (stereo not drawn) [NORVALINE]
8.3 |  | 11.8 | 1.45 | NC(CCOC(=O)CCC(=O)O)C(=O)O (stereo not drawn) [O-SUCCINYL-HOMOSERINE]
 | 11.8 |  |  | CCCCCCCCCCCCCCCC(=O)O [PALMITATE]
 | 1.71 |  |  | O=C1CCC(C(=O)O)N1 (stereo not drawn) [PYROGLUTAMATE]
5.2 |  | 4.7 | 5.34 | O=C(O)CCCCCCC(=O)O [SUBERATE]
7.98 |  | 5.27 | 1.4 | NC(=O)NCCC(=O)O [UREIDOPROPIONATE]
